Measurements: US11358969B2, “Indole AHR inhibitors and uses thereof” (Ikena Oncology, Inc., priority 2017, dated 2022)

Target: T1, AHR (UniProt P35869)
T1 construct: IC50
T1 sequence (P35869 1-848): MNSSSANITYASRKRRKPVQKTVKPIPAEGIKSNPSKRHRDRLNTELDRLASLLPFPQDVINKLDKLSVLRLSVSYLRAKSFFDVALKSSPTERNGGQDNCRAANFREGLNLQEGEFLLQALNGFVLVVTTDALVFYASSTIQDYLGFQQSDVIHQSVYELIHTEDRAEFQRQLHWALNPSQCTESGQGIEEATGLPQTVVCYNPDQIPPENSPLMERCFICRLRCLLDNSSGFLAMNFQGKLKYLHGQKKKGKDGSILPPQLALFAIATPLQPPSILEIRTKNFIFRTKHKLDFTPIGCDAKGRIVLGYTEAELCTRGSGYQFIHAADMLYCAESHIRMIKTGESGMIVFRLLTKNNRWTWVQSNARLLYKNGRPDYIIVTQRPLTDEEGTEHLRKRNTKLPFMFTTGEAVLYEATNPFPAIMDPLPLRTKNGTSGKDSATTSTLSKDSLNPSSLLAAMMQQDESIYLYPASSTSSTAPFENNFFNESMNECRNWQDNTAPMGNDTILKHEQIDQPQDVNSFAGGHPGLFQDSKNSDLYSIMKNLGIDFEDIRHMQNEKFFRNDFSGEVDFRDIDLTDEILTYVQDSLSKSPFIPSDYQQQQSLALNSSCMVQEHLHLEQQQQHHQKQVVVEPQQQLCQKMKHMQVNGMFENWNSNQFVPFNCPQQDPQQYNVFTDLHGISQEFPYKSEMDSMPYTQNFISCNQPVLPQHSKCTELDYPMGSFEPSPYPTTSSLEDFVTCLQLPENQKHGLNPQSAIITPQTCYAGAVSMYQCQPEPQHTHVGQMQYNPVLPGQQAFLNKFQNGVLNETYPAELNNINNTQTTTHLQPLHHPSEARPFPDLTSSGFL
Test: DRE-Luciferase Reporter Assay (Alternate Method) (Example 1B)
Format: cell-based, murine or human
Conditions: cell line and AHR activating ligand not specified
Description: AHR binds to Dioxin Responsive Elements (DRE) upstream of genes that it activates. One measure of AHR activity is activation of a reporter gene, such as luciferase, downstream of one or multiple DRE elements. Luciferase activity will reflect activation and inhibition of AHR in the cells expressing his reporter.
Murine Hepa1-6 or Hepa-1c1c7 or other murine cell line with a DRE-luciferase reporter either stably or transiently transfected were plated in media in plates (96-well, 384-well or other plates) and incubated overnight at 37° C. in a CO2 incubator or compound and agonist were added at the time of plating. Likewise, human HepG2 or other human cell line with a DRE-luciferase reporter either stably or transiently transfected were plated in media in plates (96-well, 384-well or other plates) and incubated overnight at 37° C. in a CO2 incubator or compound and agonist were added at the time of plating.
At the time that cells are plated or following incubation overnight, an AHR activating ligand, such as TCDD, kynurenine, ITE (2-(1H-indole-3-ylcarbonyl)-4-thiazolecarboxylic methyl ester), VAF347, BNF (beta-naphthoflavone), FICZ (6-formylindolo(3,2-b) carbazole or other AHR ligands, was added with or without AHR antagonist.
Cells were incubated for 4, 15 or 24 hours or another time point and then lysed for determination of luciferase activity as a read-out of the AHR activation or inhibition. Luciferase was measured with a commercial kit such as the Promega Luciferase kit or any kit or reagents that provide the luciferin substrate for measuring luciferase activity. The level of luciferase with only activating ligand added was the maximum signal while the luciferase with no ligand was the minimum signal. IC50 values were determined as the concentration which inhibits half of the luciferase activity.

Row | IC50 [nM] | SMILES
1 | > 1500 | CC(C)c1cnn2c(C(=O)NCc3cccc(O)c3)cc(-c3cncc(F)c3)nc12 [I-95, 5-(5-Fluoro-3-pyridyl)-N-[(3-hydroxyphenyl)methyl]-3-isopropyl-pyrazolo[1,5-a]pyrimidine-7-carboxamide]
2 | > 1500 | CC(C)c1cnn2c(N[C@H](C)Cc3ccc(O)cc3)cc(-c3cncc(F)c3)nc12 [I-97a, 4-[(2R)-2-[[5-(5-Fluoro-3-pyridyl)-3-isopropyl-pyrazolo[1,5-a]pyrimidin-7-yl]amino]propyl]phenol]
3 | > 1500 | CC(C)c1cnn2c(N[C@@H](C)Cc3c[nH]c4ccccc34)cc(-c3cncc(F)c3)nc12 [I-98a, 5-(5-Fluoro-3-pyridyl)-N-[(1S)-2-(1H-indol-3-yl)-1-methyl-ethyl]-3-isopropyl-pyrazolo[1,5-a]pyrimidin-7-amine]
4 | < 500 | CC(C)c1cnn2c(NCCc3c[nH]c4c(F)cc(F)cc34)cc(-c3cncc(F)c3)nc12 [I-99, N-[2-(5,7-Difluoro-1H-indol-3-yl)ethyl]-5-(5-fluoro-3-pyridyl)-3-isopropyl-pyrazolo[1,5-a]pyrimidin-7-amine]
5 | > 1500 | CC(C)c1cnn2c(C(=O)NCc3ccc(O)cc3)cc(-c3cncc(F)c3)nc12 [I-100, 5-(5-Fluoro-3-pyridyl)-N-[(4-hydroxyphenyl)methyl]-3-isopropyl-pyrazolo[1,5-a]pyrimidine-7-carboxamide]
6 | < 500 | Cc1cc(CCNc2cc(-c3cncc(F)c3)nc3c(C(C)C)cnn23)ccc1O [I-102, 4-[2-[[5-(5-Fluoro-3-pyridyl)-3-isopropyl-pyrazolo[1,5-a]pyrimidin-7-yl]amino]ethyl]-2-methyl-phenol]
7 | 500 to 1000 | CC(C)Oc1cc(NCCc2c[nH]c3cccnc23)nc(-c2cncc(F)c2)n1 [I-104, 2-(5-Fluoro-3-pyridyl)-6-isopropoxy-N-[2-(1H-pyrrolo[3,2-b]pyridin-3-yl)ethyl]pyrimidin-4-amine]
8 | < 500 | CC(C)c1cnn2c(NCCc3ccc(O)cc3)cc(-c3cncc(F)c3)nc12 [I-108, 4-[2-[[5-(5-Fluoro-3-pyridyl)-3-isopropyl-pyrazolo[1,5-a]pyrimidin-7-yl]amino]ethyl]phenol]
9 | 500 to 1000 | CC(C)c1cnn2c(NCCc3c[nH]c4cccnc34)cc(-c3cncc(F)c3)nc12 [I-110, 5-(5-Fluoro-3-pyridyl)-3-isopropyl-N-[2-(1H-pyrrolo[3,2-b]pyridin-3-yl)ethyl]pyrazolo[1,5-a]pyrimidin-7-amine]
10 | > 1500 | Fc1cncc(-c2ccnc(NCCc3c[nH]c4ccccc34)n2)c1 [I-120, 4-(5-Fluoro-3-pyridyl)-N-[2-(1H-indol-3-yl)ethyl]pyrimidin-2-amine]
11 | > 1500 | CC(C)c1cnn2c(N[C@@H]3CCc4[nH]c5ccccc5c4C3)nc(-c3cccc(F)c3)nc12 [I-121, (3R)—N-[2-(3-Fluorophenyl)-8-isopropyl-pyrazolo[1,5-a][1,3,5]triazin-4-yl]-2,3,4,9-tetrahydro-1H-carbazol-3-amine]
12 | > 1500 | CSc1nc(N[C@@H]2CCc3[nH]c4ccccc4c3C2)n2ncc(C(C)C)c2n1 [I-122, (3R)—N-(8-Isopropyl-2-methylsulfanyl-pyrazolo[1,5-a][1,3,5]triazin-4-yl)-2,3,4,9-tetrahydro-1H-carbazol-3-amine]
13 | 1000 to 1500 | Fc1cncc(-c2nc(N[C@@H]3CCc4[nH]c5ccccc5c4C3)n3ncc(C4CCCCC4)c3n2)c1 [I-123, (3R)—N-[8-Cyclohexyl-2-(5-fluoro-3-pyridyl)pyrazolo[1,5-a][1,3,5]triazin-4-yl]-2,3,4,9-tetrahydro-1H-carbazol-3-amine]
14 | > 1500 | Cc1cnn2c(-c3cncc(F)c3)cc(NCCc3c[nH]c4ccccc34)nc12 [I-124, 7-(5-Fluoro-3-pyridyl)-N-[2-(1H-indol-3-yl)ethyl]-3-methyl-pyrazolo[1,5-a] pyrimidin-5-amine]
15 | > 1500 | Fc1cncc(-c2nc(N[C@@H]3CCc4[nH]c5ccccc5c4C3)n3ccnc3n2)c1 [I-125, (3R)—N-[2-(5-Fluoro-3-pyridyl)imidazo[1,2-a][1,3,5]triazin-4-yl]-2,3,4,9-tetrahydro-1H-carbazol-3-amine]
16 | > 1500 | CC(C)c1cnn2c(N[C@H]3CCc4nc(N)sc4C3)nc(-c3cncc(F)c3)nc12 [I-128a, (6S)—N6-[2-(5-Fluoro-3-pyridyl)-8-isopropyl-pyrazolo[1,5-a][1,3,5]triazin-4-yl]-4,5,6,7-tetrahydro-1,3-benzothiazole-2,6-diamine]
17 | > 1500 | CC(C)c1cnn2c(N[C@@H]3CCc4nc(N)sc4C3)nc(-c3cncc(F)c3)nc12 [I-128b, (6R)—N6-[2-(5-Fluoro-3-pyridyl)-8-isopropyl-pyrazolo[1,5-a][1,3,5]triazin-4-yl]-4,5,6,7-tetrahydro-1,3-benzothiazole-2,6-diamine]
18 | < 500 | CC(C)(C)c1cnn2c(NCCc3c[nH]c4ccccc34)nc(-c3cncc(F)c3)nc12 [I-131, N-(2-(1H-Indol-3-yl)ethyl)-8-(tert-butyl)-2-(5-fluoropyridin-3-yl)pyrazolo[1,5-a][1,3,5]triazin-4-amine]
19 | 500 to 1000 | CC(C)(C)c1cnn2c(N[C@@H]3CCc4[nH]c5ccccc5c4C3)nc(-c3cncc(F)c3)nc12 [I-132, (R)—N-(8-(tert-Butyl)-2-(5-fluoropyridin-3-yl)pyrazolo[1,5-a][1,3,5]triazin-4-yl)-2,3,4,9-tetrahydro-1H-carbazol-3-amine]
20 | < 500 | OCc1cnn2c(NCCc3c[nH]c4c(O)cccc34)cc(-c3cncc(F)c3)nc12 [I-133, 3-[2-[[5-(5-fluoro-3-pyridyl)-3-(hydroxymethyl)pyrazolo[1,5-a]pyrimidin-7-yl]amino]ethyl]-1H-indol-7-ol]
21 | > 1500 | CC(C)Oc1cc(-c2cncc(F)c2)nc(N[C@@H]2CCc3[nH]c4ccccc4c3C2)n1 [I-134]
22 | < 500 | CC(C)Oc1nc(N[C@@H]2CCc3[nH]c4ccccc4c3C2)nc(-c2cncc(F)c2)n1 [I-135, (3R)—N-[4-(5-Fluoro-3-pyridyl)-6-isopropoxy-1,3,5-triazin-2-yl]-2,3,4,9-tetrahydro-1H-carbazol-3-amine]
23 | < 500 | CC(C)Oc1nc(NCCc2c[nH]c3ccccc23)nc(-c2cncc(F)c2)n1 [I-136, 4-(5-Fluoro-3-pyridyl)-N-[2-(1H-indol-3-yl)ethyl]-6-isopropoxy-1,3,5-triazin-2-amine]
24 | < 500 | CC(C)c1cnn2c(N[C@H]3CCc4[nH]c5c(F)cc(F)cc5c4C3)nc(-c3cncc(F)c3)nc12 [I-139a, (3S)-6,8-difluoro-N-[2-(5-fluoro-3-pyridyl)-8-isopropyl-pyrazolo[1,5-a][1,3,5]triazin-4-yl]-2,3,4,9-tetrahydro-1H-carbazol-3-amine]
25 | < 500 | CC(C)c1cnn2c(N[C@@H]3CCc4[nH]c5c(F)cc(F)cc5c4C3)nc(-c3cncc(F)c3)nc12 [I-139b, (3R)-6,8-difluoro-N-[2-(5-fluoro-3-pyridyl)-8-isopropyl-pyrazolo[1,5-a][1,3,5]triazin-4-yl]-2,3,4,9-tetrahydro-1H-carbazol-3-amine]
26 | < 500 | Fc1cncc(-c2nc(NCCc3c[nH]c4ccccc34)n3ncc(Br)c3n2)c1 [I-141, 8-bromo-2-(5-fluoro-3-pyridyl)-N-[2-(1H-indol-3-yl)ethyl]pyrazolo[1,5-a][1,3,5]triazin-4-amine]
27 | > 1500 | O=C(O)c1cnn2c(NCCc3c[nH]c4c(O)cccc34)cc(-c3cncc(F)c3)nc12 [I-142]
28 | > 1500 | OCc1cnn2c(NCCc3c[nH]c4ccc(O)cc34)cc(-c3cncc(F)c3)nc12 [I-143, 3-[2-[[5-(5-fluoro-3-pyridyl)-3-(hydroxymethyl)pyrazolo[1,5-a]pyrimidin-7-yl]amino]ethyl]-1H-indol-5-ol]
29 | 1000 to 1500 | OCc1cnn2c(NC[C@@H](O)c3c[nH]c4ccccc34)cc(-c3cncc(F)c3)nc12 [I-144a, (1S)-2-[[5-(5-fluoro-3-pyridyl)-3-(hydroxymethyl)pyrazolo[1,5-a]pyrimidin-7-yl]amino]-1-(1H-indol-3-yl)ethanol]
